# From patent US20240326697A1, “SOLID FORMS OF SELECTIVE ANDROGEN RECEPTOR MODULATORS” (priority 2007, published 2024)
# Marks after values point to notes of the source that are not given here.
# What was measured:
# Format in all cases: physicochemical
# [1] = Dynamic vapor sorption (DVS); conditions: 25° C.
# Experimental: Dynamic vapor sorption quantification relates the mass of water absorbed and subsequently desorbed during the crystallization process. In order to define whether batch P1, P2 and P4 are hydrated polymorphs, DVS measurements were conducted (FIG. 9). A sample (13 to 14 mg) was placed on a Pt pan, and the sample was allowed to equilibrate at 25° C./50% r.h. before starting a pre-defined humidity program (1.0 hours 50%, from 50% r.h. to 95% r.h.: 5% r.h./hour, 10 hours at 95% r.h., from 95% r.h. to 0% r.h.: 5% r.h./hour, 10 hours at 0% r.h., from 0% r.h. to 50% r.h.: 5% r.h./hour, 1 hours at 50% r.h.
# [2] = Measurement of the approximate solubility (solvent added in steps to the solid); conditions: 23 °C, read-out: Solubility
# Experimental: To determine the approximate solubility at room temperature, the solvent was added in steps to the solid material. After every addition, the sample was well stirred. The addition of solvent was continued until complete dissolution or until 15 ml of solvent was added.
# [3] = Relative stability of polymorphic forms under humid conditions (storage, DSC)
# Experimental: (§1) Thermal analysis was carried out with a Perkin Elmer DSC7 with the following experimental conditions: 3 to 6 mg sample mass, closed gold sample pan, temperature range −50° C. to 120° C., heating rate 20 K/min. The samples were weighed in air or dry N2 atmosphere. Additional thermal analysis was conducted using a TA Instruments Q1000 DSC using hermetic aluminum pans under various conditions.
# Polymorph A stays stable in its A form for at least 7 days under storage conditions of ambient temperature/75% RH (Relative Humidity), ambient temperature/100% RH, 30° C./75% RH and 50° C./0% RH.
# In fact, polymorph D in the presence of moisture acts as the seed for the crystallization process and drives the transformation of polymorphs A and B′ into D, similar to its role in seeding the A to D crystallization in dry conditions. […] The amount of polymorph D initially added to the sample is very small that it isn't detectable by the DSC with heating rate of 10° C./min. […] The transformation process is speeded up in FIG. 17G (b) by storing the sample in water at 50° C. […] Further work has shown that the A and B′ convert to D in the presence of moisture at lower temperatures also albeit at slower rates.
# [4] = Water solubility of solid forms A and B′ (suspension shaken, filtered, HPLC; residue by Raman); conditions: for Solid residue: Raman, rough estimate
# Experimental: During the following experiments: suspension equilibration, precipitation experiment, recrystallization, relative stability experiments and water solubility experiment, a filtration step was conducted. Centrifugal filter devices: Ultrafree-CL (0.22 la,m), Millipore; Centrifuge type or Eppendorf 5804R were used at a temperature of 22° C. and centrifugation program of 2 min 3000 rpm.
# HPLC was used to analyse the purity of S-1. HP 1090M HPLC machine was used with the following conditions: • Column: Symmetry Shield RP18, 3.9×150 mm, 5 μm • Column temperature: 35° C. • Injection volume: 10 μL • Solvent: acetonitrile+water 1:1 v/v • Mobile phase A: 0.1% TFA-water • Mobile phase B: 0.1% TFA-acetonitrile • Flow rate: 1 mL/min. • Detection: UV at 271 nm • Run time: 21 min. • Retention time (S-1): 10.7 min.
# Suspensions of the solid forms (25 or 50 mg in 3.5 or 7.0 ml bidistilled water) were shaken (800 rpm) and filtered after 0.5 h, 1.5 h, 4 h and 20 h. After filtration the solid residue was checked by Raman spectroscopy and the concentration in the clear solution was determined by HPLC.
# [5] = Suspension equilibration experiments; conditions: stirred 20 h/23° C.
# Experimental: Suspension equilibration experiments were carried out with 81-128 mg of the compound. The suspensions were stirred with a magnetic stirrer. The samples obtained after filtration were air dried at ambient temperature for a short time only to prevent possible desolvation of labile hydrates or solvates.
# [6] = Relative stability of polymorphic forms under dry conditions (heating, micronization)
# Experimental: as §1
# Thus forms A and B″ can be considered to be practically stable at ambient temperature. […] Micronization of the polymorph A particles under dry conditions also produced ˜25% conversion to B″.
# [7] = Water vapor sorption (humidity chamber) and aqueous suspension, form produced; conditions: for form B′ formed: powder stored in humidified chamber 96% r.h./23° C. (room temperature), 11 weeks, Raman and DSC
# Experimental: The compound was stored in a glass tube under 96% r.h. (relative humidity) in a humidity chamber at room temperature. After different time of storage Raman measurements were conducted using hermetically closed glass tubes.
smiles,measurement,setting,value
"C[C@](O)(COc1ccc(C#N)cc1)C(=O)Nc1ccc(C#N)c(C(F)(F)F)c1 [Form A, (S)-N-(4-cyano-3-(trifluoromethyl)phenyl)-3-(4-cyanophenoxy)-2-hydroxy-2-methylpropanamide]",maximum water content at 93% r.h.,[1],1.5%
same,solubility,"[2]; 1,4-dioxane, organic solvent or mixture, thermodynamic from solid, 1,4-dioxane, 23° C.",> 200 mg/mL
same,solubility,"[2]; TBME, organic solvent or mixture, thermodynamic from solid, TBME, 23° C.",> 200 mg/mL
same,solubility,"[2]; THF, organic solvent or mixture, thermodynamic from solid, THF, 23° C.",> 200 mg/mL
same,solubility,"[2]; THF/n-heptane 1:1 v/v, organic solvent or mixture, thermodynamic from solid, THF/n-heptane 1:1 v/v, 23° C.",> 200 mg/mL
same,solubility,"[2]; THF/n-heptane 1:3 v/v, organic solvent or mixture, thermodynamic from solid, THF/n-heptane 1:3 v/v, 23° C.",65 mg/mL
same,solubility,"[2]; acetic acid, organic solvent or mixture, thermodynamic from solid, acetic acid, 23° C.",> 200 mg/mL
same,solubility,"[2]; acetone, organic solvent or mixture, thermodynamic from solid, acetone, 23° C.",> 200 mg/mL
same,solubility,"[2]; acetone/n-heptane 1:1 v/v, organic solvent or mixture, thermodynamic from solid, acetone/n-heptane 1:1 v/v, 23° C.",> 200 mg/mL
same,solubility,"[2]; acetone/n-heptane 1:3 v/v, organic solvent or mixture, thermodynamic from solid, acetone/n-heptane 1:3 v/v, 23° C.",90 mg/mL
same,solubility,"[2]; acetonitrile, organic solvent or mixture, thermodynamic from solid, acetonitrile, 23° C.",> 200 mg/mL
same,solubility,"[2]; acetonitrile/toluene 1:1 v/v, organic solvent or mixture, thermodynamic from solid, acetonitrile/toluene 1:1 v/v, 23° C.",> 200 mg/mL
same,solubility,"[2]; acetonitrile/toluene 1:3 v/v, organic solvent or mixture, thermodynamic from solid, acetonitrile/toluene 1:3 v/v, 23° C.",170 mg/mL
same,solubility,"[2]; dichloromethane, organic solvent or mixture, thermodynamic from solid, dichloromethane, 23° C.",> 200 mg/mL
same,solubility,"[2]; ethanol, organic solvent or mixture, thermodynamic from solid, ethanol, 23° C.",> 200 mg/mL
same,solubility,"[2]; ethanol/n-heptane 1:1 v/v, organic solvent or mixture, thermodynamic from solid, ethanol/n-heptane 1:1 v/v, 23° C.",180 mg/mL
same,solubility,"[2]; ethanol/n-heptane 1:3 v/v, organic solvent or mixture, thermodynamic from solid, ethanol/n-heptane 1:3 v/v, 23° C.",50 mg/mL
same,solubility,"[2]; ethanol/water 1:1 v/v, aqueous with cosolvent or surfactant or cyclodextrin, thermodynamic from solid, ethanol/water 1:1 v/v, 23° C.",50 mg/mL
same,solubility,"[2]; ethanol/water 1:3 v/v, aqueous with cosolvent or surfactant or cyclodextrin, thermodynamic from solid, ethanol/water 1:3 v/v, 23° C.",< 5 mg/mL
same,solubility,"[2]; ethanol/water 3:1 v/v, aqueous with cosolvent or surfactant or cyclodextrin, thermodynamic from solid, ethanol/water 3:1 v/v, 23° C.",> 200 mg/mL
same,solubility,"[2]; ethyl acetate, organic solvent or mixture, thermodynamic from solid, ethyl acetate, 23° C.",> 200 mg/mL
same,solubility,"[2]; ethyl acetate/n-heptane 1:1 v/v, organic solvent or mixture, thermodynamic from solid, ethyl acetate/n-heptane 1:1 v/v, 23° C.",65 mg/mL
same,solubility,"[2]; ethyl acetate/n-heptane 1:2 v/v, organic solvent or mixture, thermodynamic from solid, ethyl acetate/n-heptane 1:2 v/v, 23° C. (B′: solid form transformation into solid form A)",9 mg/mL
same,solubility,"[2]; ethyl acetate/n-heptane 1:3 v/v, organic solvent or mixture, thermodynamic from solid, ethyl acetate/n-heptane 1:3 v/v, 23° C. (turbid solution)",< 5 mg/mL
same,solubility,"[2]; ethyl acetate/n-pentane 1:2 v/v, organic solvent or mixture, thermodynamic from solid, ethyl acetate/n-pentane 1:2 v/v, 23° C.",13 mg/mL
same,solubility,"[2]; ethyl formate/n-pentane 1:2 v/v, organic solvent or mixture, thermodynamic from solid, ethyl formate/n-pentane 1:2 v/v, 23° C.",12 mg/mL
same,solubility,"[2]; methyl acetate/n-pentane 1:2 v/v, organic solvent or mixture, thermodynamic from solid, methyl acetate/n-pentane 1:2 v/v, 23° C.",8 mg/mL
same,solubility,"[2]; toluene, organic solvent or mixture, thermodynamic from solid, toluene, 23° C. (turbid solution)",< 6 mg/mL
same,"solid form change, seeded with a small amount of D","[3]; 50° C./75% RH, after 24 hours",most of the polymorph form A has been converted to B′ but a small amount of sample has also been converted to D
same,time stable in its A form on storage,"[3]; each of ambient temperature/75% RH, ambient temperature/100% RH, 30° C./75% RH and 50° C./0% RH",at least 7 days
same,stable through (storage time),[3]; stored at 25° C./60% RH,≥ 36 months
same,stable through (storage time),[3]; stored at 30° C./65% RH,≥ 9 months
same,solid form change on storage,[3]; stored at 40° C./75% RH,converts to B′ when stored at 40° C./75% RH within one month
same,solid form change on storage,"[3]; stored at 40° C./75% RH, listed as polymorph A",converted to B′ within one month
same,solid form change on storage,[3]; stored at 50° C./75% RH,converts to B′
same,"solid form change, seeded with a small amount of D","[3]; stored in water at 50° C., after 6 hours",converted to both B′ and D
same,"solid form change, seeded with a small amount of D","[3]; stored in water at 50° C., by 24 hours",predominantly in form D
same,solubility in water,"[4]; 22° C., stated as embodiment",0.023 to 0.027 mg/mL
same,Solid residue,"[4]; water, 22° C., 0.5 h",A + B′ (approx. 95% + 5%) ^c)
same,Solid residue,"[4]; water, 22° C., 1.5 h",A + B′ (approx. 90% + 10%) ^c)
same,Solid residue,"[4]; water, 22° C., 4.0 h",A + B′ (approx. 85% + 15%) ^c)
same,Solid residue,"[4]; water, 22° C., 20 h",A + B′ (approx. 75% + 25%) ^c)
same,pH of the solution,"[4]; water, 22° C., 20 h suspension equilibration",^d) pH of the solution: 8.7
same,solubility,"[4]; water, 22° C., suspension equilibration time 0.5 h, mean of two measurements (±standard deviation)",21.0 ± 3.9 mg/1000 ml
same,solubility,"[4]; water, 22° C., suspension equilibration time 1.5 h, mean of two measurements (±standard deviation)",24.0 ± 1.4 mg/1000 ml
same,solubility,"[4]; water, 22° C., suspension equilibration time 1.5 h, mean of two measurements (±standard deviation), listed as A",24.0±1.4 mg/1000 ml
same,solubility,"[4]; water, 22° C., suspension equilibration time 4.0 h, mean of two measurements (±standard deviation)",27.6 ± 1.5 mg/1000 ml
same,solubility,"[4]; water, 22° C., suspension equilibration time 20 h, mean of two measurements (±standard deviation)",24.5 ± 1.7 ^d) mg/1000 ml
same,solubility,"[4]; water, 22 °C, water, thermodynamic from solid, stated as embodiment, read-out: solubility in water",0.02 to 0.03 mg/mL
same,Form produced,[5]; ethyl formate + n-pentane 1:2 v/v 112/2.0 mg/ml,no transformation of solid form A
same,Form produced,[5]; methyl acetate + n-pentane 1:2 v/v 126/2.0 mg/ml,no transformation of solid form A
same,solid form change on heating,[6]; heating to 110° C. in the presence of D,rearrange into D
same,conversion to B″,[6]; micronization of the particles under dry conditions,~25%
same,form B′ formed,[7]; listed as A,~20% form B′
same,form B′ formed,[7]; listed as form A,approx. 20%
same,Form produced,"[7]; powder stored in humidified chamber 96% r.h./23° C., 4 weeks",A + small
same,Form produced,"[7]; powder stored in humidified chamber 96% r.h./23° C., 9 weeks",A + form B′
same,Form produced,"[7]; suspension in water 111/5.0 mg/ml, sonication 5 min., stirred 19 h/37° C., filtered & air dried",B′
same,Form produced,"[7]; water + 5% acetic acid v/v 105/2.0 mg/ml, stirred 17 h/40° C., cooled to R.T. and removed solution",B′
same,Form produced,"[7]; water + 5% ethanol v/v 123/2.1 mg/ml, stirred 3 h/83° C., cooled to 47° C. within 1.5 h, filtered & air dried",B′
